Here are results for 17 molecules from patent US12486253B2, “Therapeutics for the degradation of mutant BRAF” (C4 THERAPEUTICS, INC., priority 2021, dated 2025).

SMILES strings stand for the structures. Where two headings read alike, the source gives them in different places.

The target in this assay is BRAF V600E (Homo sapiens, UniProt P15056, V600E). Nature of the assay: HiBiT cellular BRAF^V600E degradation assay. The format is cell-based. To be noted: for DC50: concentration at which 50% of total cellular BRAF^V600E is degraded; for Emax: read-out: HiBit 24 h Emax.
Chain of BRAF V600E (P15056 whole entry V600E): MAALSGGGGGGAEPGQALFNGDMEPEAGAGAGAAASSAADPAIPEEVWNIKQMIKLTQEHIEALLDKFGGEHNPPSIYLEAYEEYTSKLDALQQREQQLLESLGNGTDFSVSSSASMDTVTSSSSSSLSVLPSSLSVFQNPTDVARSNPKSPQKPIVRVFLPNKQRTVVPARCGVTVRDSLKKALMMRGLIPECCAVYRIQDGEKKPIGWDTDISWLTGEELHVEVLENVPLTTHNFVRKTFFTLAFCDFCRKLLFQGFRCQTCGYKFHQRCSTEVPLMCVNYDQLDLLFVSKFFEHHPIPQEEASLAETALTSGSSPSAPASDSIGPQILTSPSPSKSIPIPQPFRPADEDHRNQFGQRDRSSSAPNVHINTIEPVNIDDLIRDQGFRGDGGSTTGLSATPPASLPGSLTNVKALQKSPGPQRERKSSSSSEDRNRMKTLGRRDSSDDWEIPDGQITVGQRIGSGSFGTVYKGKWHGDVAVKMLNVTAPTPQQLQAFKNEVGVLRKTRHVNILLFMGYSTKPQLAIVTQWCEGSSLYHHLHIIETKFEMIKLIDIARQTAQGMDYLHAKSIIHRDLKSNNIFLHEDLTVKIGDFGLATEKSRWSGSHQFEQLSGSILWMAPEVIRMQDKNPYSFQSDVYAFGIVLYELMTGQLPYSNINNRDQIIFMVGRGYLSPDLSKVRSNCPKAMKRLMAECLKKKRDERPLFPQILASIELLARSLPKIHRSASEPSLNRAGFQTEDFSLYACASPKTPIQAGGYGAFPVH
The mark [1] stands for this setting: A375.10 cells, 24 h, residual protein remaining in the cell.

`CCN(C)S(=O)(=O)Nc1ccc(F)c(Oc2ccc3ncn([C@H]4COC5(CCN(C(=O)CN6CCC(c7cc(OC)c(NC8CCC(=O)NC8=O)cc7F)CC6)CC5)C4)c(=O)c3c2)c1C#N` (stereo partly drawn) [Example 75, (3R)-3-[6-[2-cyano-3-[[ethyl(methyl)sulfamoyl]amino]-6-fluorophenoxy]-4-oxoquinazolin-3-yl]-8-[2-[4-[4-[(2,6-dioxopiperidin-3-yl)amino]-2-fluoro-5-methoxyphenyl]piperidin-1-yl]acetyl]-1-oxa-8-azaspiro[4.5]decane] displayed a DC50 (A375.10 cells, 24 h) of 43.2 nM. In addition, the Emax under setting [1] turned out to be 8.31%. In turn, `CCN(C)S(=O)(=O)Nc1ccc(F)c(Oc2ccc3ncn([C@H]4COC5(CCN(C(=O)CN6CCCC(c7ccc(NC8CCC(=O)NC8=O)cc7F)CC6)CC5)C4)c(=O)c3c2)c1C#N` (stereo partly drawn) [Example 76, (3R)-3-[6-[2-cyano-3-[[ethyl(methyl)sulfamoyl]amino]-6-fluorophenoxy]-4-oxoquinazolin-3-yl]-8-[2-[4-[4-[(2,6-dioxopiperidin-3-yl)amino]-2-fluorophenyl]azepan-1-yl]acetyl]-1-oxa-8-azaspiro[4.5]decane] displayed a DC50 (A375.10 cells, 24 h) of 50.1 nM. The Emax under setting [1] was found to be 13.2%. `CCN(C)S(=O)(=O)Nc1ccc(F)c(Oc2ccc3ncn(C4COC5(CCN(C(=O)CN6CCC(c7ccc(NC8CCC(=O)NC8=O)cc7F)CC6)CC5)C4)c(=O)c3c2N)c1C#N` (stereo not drawn) [Example 81, 3-[5-amino-6-[2-cyano-3-[[ethyl(methyl)sulfamoyl]amino]-6-fluorophenoxy]-4-oxoquinazolin-3-yl]-8-[2-[4-[4-[(2,6-dioxopiperidin-3-yl)amino]-2-fluorophenyl]piperidin-1-yl]acetyl]-1-oxa-8-azaspiro[4.5]decane] yielded a DC50 (A375.10 cells, 24 h) of 25.4 nM. In addition, the Emax under setting [1] came out at 12.2%. Molecule `CCN(C)S(=O)(=O)Nc1ccc(F)c(Oc2ccc3ncn(-c4cnc(N5CCN(C(=O)CN6CCC(c7ccc(NC8CCC(=O)NC8=O)cc7F)CC6)CC5)nc4)c(=O)c3c2)c1C#N` (stereo not drawn) [Example 84, 6-[2-cyano-3-[[ethyl(methyl)sulfamoyl]amino]-6-fluorophenoxy]-3-[2-[4-[2-[4-[4-[(2,6-dioxopiperidin-3-yl)amino]-2-fluorophenyl]piperidin-1-yl]acetyl]piperazin-1-yl]pyrimidin-5-yl]-4-oxoquinazoline] displayed a DC50 (A375.10 cells, 24 h) of 9.97 nM. Moreover, the Emax under setting [1] was found to be 9.26%. On to `CCN(C)S(=O)(=O)Nc1ccc(F)c(Oc2ccc3ncn(-c4ccc(N5CCN(C(=O)CN6CCC(c7ccc(NC8CCC(=O)NC8=O)cc7F)CC6)CC5)nc4)c(=O)c3c2)c1C#N` (stereo not drawn) [Example 85, 6-[2-cyano-3-[[ethyl(methyl)sulfamoyl]amino]-6-fluorophenoxy]-3-[6-[4-[2-[4-[4-[(2,6-dioxopiperidin-3-yl)amino]-2-fluorophenyl]piperidin-1-yl]acetyl]piperazin-1-yl]pyridin-3-yl]-4-oxoquinazoline], for which, for the setting “A375.10 cells, 24 h”, the 50% degradation concentration (DC50) was determined as 15.8 nM. For the same molecule, the Emax under setting [1] is 11%. The molecule `CCN(C)S(=O)(=O)Nc1ccc(F)c(Oc2ccc3ncn(-c4cnc(N5CCN(C(=O)CN6CCC(c7ccc(NC8CCC(=O)NC8=O)cc7F)CC6)CC5)nc4)c(=O)c3c2F)c1C#N` (stereo not drawn) [Example 86, 6-[2-cyano-3-[[ethyl(methyl)sulfamoyl]amino]-6-fluorophenoxy]-3-[2-[4-[2-[4-[4-[(2,6-dioxopiperidin-3-yl)amino]-2-fluorophenyl]piperidin-1-yl]acetyl]piperazin-1-yl]pyrimidin-5-yl]-5-fluoro-4-oxoquinazoline] registered a DC50 (A375.10 cells, 24 h) of 8.28 nM. For the same molecule, under setting [1], the Emax was 12.9%. Where the note is “A375.10 cells, 24 h”, `CCN(C)S(=O)(=O)Nc1ccc(F)c(Oc2ccc3ncn(-c4ccc(N5CCN(C(=O)CN6CCC(c7c(F)cc(NC8CCC(=O)NC8=O)cc7OC)CC6)CC5)nc4)c(=O)c3c2)c1C#N` (stereo not drawn) [Example 87, 6-[2-cyano-3-[[ethyl(methyl)sulfamoyl]amino]-6-fluorophenoxy]-3-[6-[4-[2-[4-[4-[(2,6-dioxopiperidin-3-yl)amino]-2-fluoro-6-methoxyphenyl]piperidin-1-yl]acetyl]piperazin-1-yl]pyridin-3-yl]-4-oxoquinazoline] showed a DC50 of 30.3 nM. Further, under setting [1], the Emax turned out to be 10.1%. `CCN(C)S(=O)(=O)Nc1ccc(F)c(Oc2ccc3ncn(-c4cnc(N5CCN(C(=O)CN6CCC(c7cc(OC)c(NC8CCC(=O)NC8=O)cc7F)CC6)CC5)nc4)c(=O)c3c2)c1C#N` (stereo not drawn) [Example 88, 6-[2-cyano-3-[[ethyl(methyl)sulfamoyl]amino]-6-fluorophenoxy]-3-[2-[4-[2-[4-[4-[(2,6-dioxopiperidin-3-yl)amino]-2-fluoro-5-methoxyphenyl]piperidin-1-yl]acetyl]piperazin-1-yl]pyrimidin-5-yl]-4-oxoquinazoline]: the Emax was 9.01%. This molecule registered a 50% degradation concentration (DC50) (A375.10 cells, 24 h) of 15.1 nM. Under “A375.10 cells, 24 h”, `CCN(C)S(=O)(=O)Nc1ccc(F)c(Oc2ccc3ncn(-c4cnc(N5CCN(C(=O)CN6CCC(c7c(F)cc(NC8CCC(=O)NC8=O)cc7OC)CC6)CC5)nc4)c(=O)c3c2)c1C#N` (stereo not drawn) [Example 89, 6-[2-cyano-3-[[ethyl(methyl)sulfamoyl]amino]-6-fluorophenoxy]-3-[2-[4-[2-[4-[4-[(2,6-dioxopiperidin-3-yl)amino]-2-fluoro-6-methoxyphenyl]piperidin-1-yl]acetyl]piperazin-1-yl]pyrimidin-5-yl]-4-oxoquinazoline] came in with a DC50 of 33 nM. For the same molecule, the Emax under setting [1] amounted to 11.5%. As to `CCN(C)S(=O)(=O)Nc1ccc(F)c(Oc2ccc3ncn(-c4ccc(N5CCN(C(=O)CN6CCC(c7cc(OC)c(NC8CCC(=O)NC8=O)cc7F)CC6)CC5)nc4)c(=O)c3c2)c1C#N` (stereo not drawn) [Example 90, 6-[2-cyano-3-[[ethyl(methyl)sulfamoyl]amino]-6-fluorophenoxy]-3-[6-[4-[2-[4-[4-[(2,6-dioxopiperidin-3-yl)amino]-2-fluoro-5-methoxyphenyl]piperidin-1-yl]acetyl]piperazin-1-yl]pyridin-3-yl]-4-oxoquinazoline], the Emax amounted to 10.7%. Where the note is “A375.10 cells, 24 h”, the DC50 was found to be 23.5 nM. For `CCN(C)S(=O)(=O)Nc1ccc(F)c(Oc2ccc3ncn(-c4cnc(N5CCN(C(=O)CN6CCC(c7ccc(N[C@H]8CCC(=O)NC8=O)cc7F)CC6)CC5)nc4)c(=O)c3c2)c1C#N` [Example 92, 6-[2-cyano-3-[[ethyl(methyl)sulfamoyl]amino]-6-fluorophenoxy]-3-[2-[4-[2-[4-[4-[[(3S)-2,6-dioxopiperidin-3-yl]amino]-2-fluorophenyl]piperidin-1-yl]acetyl]piperazin-1-yl]pyrimidin-5-yl]-4-oxoquinazoline], the Emax stood at 7.37%. Under “A375.10 cells, 24 h”, the DC50 came out at 8.71 nM.

With `CCN(C)S(=O)(=O)Nc1ccc(F)c(Oc2ccc3ncn(-c4ccc(N5CCN(C(=O)CN6CCC(c7ccc(N[C@@H]8CCC(=O)NC8=O)cc7F)CC6)CC5)nc4)c(=O)c3c2)c1C#N` [Example 93, 6-[2-cyano-3-[[ethyl(methyl)sulfamoyl]amino]-6-fluorophenoxy]-3-[6-[4-[2-[4-[4-[[(3R)-2,6-dioxopiperidin-3-yl]amino]-2-fluorophenyl]piperidin-1-yl]acetyl]piperazin-1-yl]pyridin-3-yl]-4-oxoquinazoline], the DC50 (A375.10 cells, 24 h) is 28 nM. In addition, under setting [1], the Emax is 14.1%. In turn, `CCN(C)S(=O)(=O)Nc1ccc(F)c(Oc2ccc3ncn(-c4ccc(N5CCN(C(=O)CN6CCC(c7ccc(N[C@H]8CCC(=O)NC8=O)cc7F)CC6)CC5)nc4)c(=O)c3c2)c1C#N` [Example 94, 6-[2-cyano-3-[[ethyl(methyl)sulfamoyl]amino]-6-fluorophenoxy]-3-[6-[4-[2-[4-[4-[[(3S)-2,6-dioxopiperidin-3-yl]amino]-2-fluorophenyl]piperidin-1-yl]acetyl]piperazin-1-yl]pyridin-3-yl]-4-oxoquinazoline] showed a DC50 (A375.10 cells, 24 h) of 21.5 nM. Also, the Emax under setting [1] was determined as 10.5%.

In the case of `CCN(C)S(=O)(=O)Nc1ccc(F)c(Oc2ccc3ncn(-c4cnc(N5CCN(C(=O)CN6CCC(c7ccc(N[C@@H]8CCC(=O)NC8=O)cc7F)CC6)CC5)nc4)c(=O)c3c2)c1C#N` [Example 95, 6-[2-cyano-3-[[ethyl(methyl)sulfamoyl]amino]-6-fluorophenoxy]-3-[2-[4-[2-[4-[4-[[(3R)-2,6-dioxopiperidin-3-yl]amino]-2-fluorophenyl]piperidin-1-yl]acetyl]piperazin-1-yl]pyrimidin-5-yl]-4-oxoquinazoline], the Emax came out at 10.4%. For the setting “A375.10 cells, 24 h”, this molecule had a DC50 of 10.7 nM. Take `CO[C@@H]1CCN(S(=O)(=O)Nc2ccc(F)c(Oc3ccc4ncn(-c5cnc(N6CCN(C(=O)CN7CCC(c8ccc(N[C@H]9CCC(=O)NC9=O)cc8F)CC7)CC6)nc5)c(=O)c4c3)c2C#N)C1` [Example 96, (3R)—N-[2-cyano-3-[3-[2-[4-[2-[4-[4-[[(3S)-2,6-dioxopiperidin-3-yl]amino]-2-fluorophenyl]piperidin-1-yl]acetyl]piperazin-1-yl]pyrimidin-5-yl]-4-oxoquinazolin-6-yl]oxy-4-fluorophenyl]-3-methoxypyrrolidine-1-sulfonamide]: the Emax came out at 8.43%. The same molecule gave a DC50 (A375.10 cells, 24 h) of 9.91 nM. `CO[C@@H]1CCN(S(=O)(=O)Nc2ccc(F)c(Oc3ccc4ncn(-c5cnc(N6CCN(C(=O)CN7CCC(c8ccc(N[C@@H]9CCC(=O)NC9=O)cc8F)CC7)CC6)nc5)c(=O)c4c3)c2C#N)C1` [Example 97, (3R)—N-[2-cyano-3-[3-[2-[4-[2-[4-[4-[[(3R)-2,6-dioxopiperidin-3-yl]amino]-2-fluorophenyl]piperidin-1-yl]acetyl]piperazin-1-yl]pyrimidin-5-yl]-4-oxoquinazolin-6-yl]oxy-4-fluorophenyl]-3-methoxypyrrolidine-1-sulfonamide] came in with a DC50 (A375.10 cells, 24 h) of 8.41 nM. Under setting [1], the Emax is 10.6%.

As for `CCN(C)S(=O)(=O)Nc1ccc(F)c(Oc2ccc3ncn(-c4cnc(N5CCN(C(=O)[C@H](CO)N6CCC(c7ccc(N[C@H]8CCC(=O)NC8=O)cc7F)CC6)CC5)nc4)c(=O)c3c2)c1C#N` [Example 98, 6-[2-cyano-3-[[ethyl(methyl)sulfamoyl]amino]-6-fluorophenoxy]-3-[2-[4-[(2S)-2-[4-[4-[[(3S)-2,6-dioxopiperidin-3-yl]amino]-2-fluorophenyl]piperidin-1-yl]-3-hydroxypropanoyl]piperazin-1-yl]pyrimidin-5-yl]-4-oxoquinazoline], the Emax is 10.1%.

Broadly, the DC50 is the concentration at which degradation of the target reaches its halfway point. A lower DC50 goes with a more potent degrader. The term Emax denotes the greatest response seen or fitted, relative to the assay's reference.
